Laboratory results published in publication PMC10147685, “Safety, tolerability, and pharmacokinetics of Aurora kinase B inhibitor AZD2811: a phase 1 dose-finding study in patients with advanced solid tumours” (British Journal of Cancer, 2023).
Where two headings read alike, the source gives them in different places.

Assay: Pharmacokinetics: AZD2811 whole blood concentrations and urine excretion
Format: in vivo, human
Conditions: for Cmax / AUC(0-t) / Tmax: human, whole blood; for Cmax: read-out: Geometric mean Cmax (CV%); for AUC(0-t): compartmental PK analysis, read-out: Geometric mean AUC(0–504h) (CV%); for Tmax: read-out: Median tmax (range)
Experimental: AEs were assessed throughout the treatment and follow-up periods. Patients were followed until all treatment-related toxicity resolved, or for at least 30 days post-study drug discontinuation. AEs were graded according to CTCAE v4.03. Venous blood samples (4 mL) for measurement of AZD2811 concentrations were collected at Cycle 1 Days 1–6, 8, 15, 16, and 22 and Cycle 2 Day 1 in Cohorts 1–6; Cycle 1 Days 1, 4, 8, 12, and 22 in Cohort 7; Cycle 1 Days 1, 4, 8, 12, and 15 and Cycle 2 Day 1 in Cohorts 8–12. Tumour imaging assessments using computed tomography or magnetic resonance imaging of the chest and abdomen/pelvis were performed at screening (≤28 days prior to initiation of treatment), and then every 2 cycles.
The safety analysis set comprised all patients who received at least one dose of AZD2811. The PK analysis set comprised all patients who received at least one dose of AZD2811 with at least one reportable concentration. […] There was no formal statistical analysis of safety and efficacy data. The numbers of patients experiencing each AE were summarised by Medical Dictionary for Regulatory Activities (MedDRA) version 22.1 system organ class, MedDRA preferred term, and CTCAE grade. The ORR and best overall response based on RECIST 1.1 were summarised. AZD2811 blood concentrations and derived PK parameters were summarised by dose regimen. Summary statistics were calculated for area under the curve (AUC), time of maximum concentration (tmax), and maximum concentration after a single dose (Cmax).
Compartmental PK analysis was used to derive AUC from time zero to the time of the last planned sampling time in the study (AUC0–504h). Cmax and tmax were derived using the standard non-compartmental approach. PK parameters of Cmax, tmax, and AUC0–504h are summarised by cohort in Supplementary Table 2, and geometric mean AZD2811 whole blood concentrations are presented by cohort in Fig. 3. Maximum AZD2811 whole blood concentrations were observed after the end of infusions (Days 1 and 4). […] There was evidence of a second and third phase, 96 and 264 h post-dose. […] Urine samples were only collected in the first four cohorts, and AZD2811 concentrations were below the limit of quantification in the majority (>80%). Consequently, only the total amount of unchanged AZD2811 excreted into urine over 0–72 h was calculated; the maximum amount excreted was 294.40 µg for a patient in Cohort 4 (51 mg AZD2811), which represented <1% of the dose.
Fig. 3 Geometric mean (±geoSD) AZD2811 whole blood concentrations. a For days 1 and 4 regimens and b for day 1 only regimens. In Cohorts 1–6, PK blood samples (4 mL per sample) for determination of AZD2811 blood concentrations were collected from all patients on Cycle 1 Day 1 pre-dose, and at 1, 2, 4, 6, 8, 24, and 48 h (±15 min for each time point) from the start of infusion, then on Cycle 1 Day 4 pre-dose, and at 1, 2, 4, 6, 8, and 24 h (day 5), 48 h (day 6), 96 h (day 8) from the start of infusion, and in the morning on days 15, 16, and 22. A Cycle 2 Day 1 pre-dose sample and a 2-h sample (end of infusion) were also obtained. In Cohorts 7–12, PK blood samples were collected from all patients on Cycle 1 Day 1 pre-dose, and at 1, 2, 4, 6, and 8 h from the start of infusion, and in the morning on Days 4, 8, 12, and 22. G-CSF granulocyte colony stimulating factor, PK pharmacokinetics, Q3W every 3 weeks, Q4W every 4 weeks.

[1] = intravenous, 15 mg, Cohort 1: 15 mg, Days 1 and 4, 28-day cycles, no G-CSF, N = 3
[2] = intravenous, 25 mg, Cohort 2: 25 mg, Days 1 and 4, 28-day cycles, no G-CSF, N = 3
[3] = intravenous, 38 mg, Cohort 3: 38 mg, Days 1 and 4, 28-day cycles, no G-CSF, N = 3
[4] = intravenous, 51 mg, Cohort 4: 51 mg, Days 1 and 4, 28-day cycles, no G-CSF, N = 3
[5] = intravenous, 100 mg, Cohort 5: 100 mg, Days 1 and 4, 28-day cycles, no G-CSF, N = 3
[6] = intravenous, 200 mg, Cohort 8: 200 mg, Day 1, 21-day cycles, optional G-CSF, N = 3
[7] = intravenous, 200 mg, Cohort 6: 200 mg, Days 1 and 4, 28-day cycles, no G-CSF, N = 9
[8] = intravenous, 200 mg, Cohort 7: 200 mg, Day 1, 28-day cycles, optional G-CSF, N = 4
[9] = intravenous, 400 mg, Cohort 9: 400 mg, Day 1, 21-day cycles, optional G-CSF, N = 7
[10] = intravenous, 500 mg, Cohort 12: 500 mg, Day 1, 21-day cycles, mandatory G-CSF, N = 6
[11] = intravenous, 600 mg, Cohort 11: 600 mg, Day 1, 21-day cycles, mandatory G-CSF, N = 3
[12] = over 0–72 h, a patient in Cohort 4 (51 mg AZD2811)

CCN(CCO)CCCOc1ccc2c(Nc3cc(CC(=O)Nc4cccc(F)c4)n[nH]3)ncnc2c1 [AZD2811, AZD1152 hydroxyquinazoline pyrazole anilide]
Dose proportionality of PK (across the dose range evaluated (15–600 mg)): broadly dose-proportional
Urine samples with AZD2811 concentrations below the limit of quantification (first four cohorts): > 80%
Duration of AZD2811 blood exposure (following a 2-h infusion on Day 1): sustained for several days
End of gradual monophasic decline in concentration post-infusion (following a 2-h infusion on Day 1, second and third phase 96 and 264 h post-dose): approximately 96 h
Cmax (in vivo, Cohort 8: 200 mg, Day 1, 21-day cycles, optional G-CSF, N = 3): 41400 ng/mL
AUC(0-t) [1]: 362 µg·h/mL
Cmax [1]: 3900 ng/mL
Tmax [1]: 77 h
AUC(0-t) [2]: 658 µg·h/mL
Cmax [2]: 6700 ng/mL
Tmax [2]: 75 h
AUC(0-t) [3]: 917 µg·h/mL
Cmax [3]: 8900 ng/mL
Tmax [3]: 75 h
AUC(0-t) [4]: 1420 µg·h/mL
Cmax [4]: 14500 ng/mL
Tmax [4]: 78 h
AUC(0-t) [5]: 3670 µg·h/mL
Cmax [5]: 36800 ng/mL
Tmax [5]: 78 h
AUC(0-t) (intravenous, 200 mg, Cohort 6: 200 mg, Days 1 and 4, 28-day cycles, no G-CSF, N = 8): 6220 µg·h/mL
AUC(0-t) (intravenous, 200 mg, Cohort 7: 200 mg, Day 1, 28-day cycles, optional G-CSF, N = 3): 3020 µg·h/mL
AUC(0-t) [6]: 2750 µg·h/mL
Cmax [7]: 58300 ng/mL
Tmax [7]: 74 h
Cmax [8]: 43400 ng/mL
Tmax [8]: 2 h
Tmax [6]: 4 h
AUC(0-t) [9]: 5440 µg·h/mL
Cmax [9]: 87300 ng/mL
Tmax [9]: 3 h
AUC(0-t) (intravenous, 500 mg, Cohort 12: 500 mg, Day 1, 21-day cycles, mandatory G-CSF, N = 5): 7840 µg·h/mL
Cmax [10]: 93900 ng/mL
Tmax [10]: 6 h
AUC(0-t) [11]: 11600 µg·h/mL
Cmax [11]: 138000 ng/mL
Tmax [11]: 6 h
Maximum amount excreted into urine as part of the dose [12]: < 1 % of the dose
Maximum amount of unchanged AZD2811 excreted into urine [12]: 294.40 µg
